The values below come from paper PMC11768771, “Identification of a New Pentafluorosulfanyl-Substituted Chalcone with Activity Against Hepatoma and Human Parasites” (Pharmaceuticals, 2025).

Series [1] relates to T. gondii tachyzoites (RH strain). Set-up: method as in PMID 34174635. Particulars: positive control; cited from earlier work.
For series [2] the test system is unchanged. Briefly: Toxoplasma gondii testing assay. It counts as cell-based. Particulars: for IC50: Toxoplasma gondii, T. gondii parasites cultivated in Vero cells; for SI selectivity index (Vero/T. gondii): ratio Vero IC50 / T. gondii IC50.
Experimental: Cells of the Vero cell line (ATCC® CCL81™, Manassas, VA, USA) were used to cultivate T. gondii tachyzoites (RH strain, a gift from Dr. Saeed El-Ashram, State Key Laboratory for Agrobiotechnology, China Agricultural University, Beijing, China). Effects of test compounds on T. gondii growth were investigated as published previously and expressed as IC50 values, which were calculated from three independent experiments [63, 89].
A further series concerns murine macrophages. Briefly: Macrophage cytotoxicity (MTT assay). Type of series: cell-based. Particulars: Mus musculus. On the technique in general: Formazan colour is commonly taken as a measure of viable cells.
The next series deals with L. major promastigotes. The series can be described thus: Leishmania major testing assay, promastigotes. Type of series: cell-based. The following applies: for SI (Promastigotes) selectivity index (macrophages/L. major): ratio macrophages IC50 / promastigotes IC50.
Another series concerns Vero monkey kidney cells. Briefly: Vero cell cytotoxicity (MTT assay). Particulars: Primates. It counts as cell-based.
In series [3] the test system is HepG2. Briefly: Antiproliferative activity, crystal violet assay. It counts as cell-based. The following applies: Homo sapiens, HepG2, 48 h, mean ± SD.
Experimental: (§3) Human hepatocellular carcinoma cell lines HepG2 (ATCC number: HB-8065) and HuH-7 (JCRB number: JCRB0403) were cultured at Roswell Park Memorial Institute (RPMI) 1640 Medium (Gibco, Thermo Fisher Scientific, Waltham, MA, USA) supplemented with 10% fetal bovine serum, 2 mM L-glutamine (Corning, Glendale, CA, USA), 100 U/mL penicillin and 100 µg/mL streptomycin (Bio&SELL, Feucht, Germany) at 37 °C, 5% CO2 in a humidified atmosphere in an incubator.
(§4) Treatment-induced antiproliferative effects measured as a decrease in cell number were assessed by crystal violet (N-hexamethylpararosaniline from Sigma-Aldrich, Darmstadt, Germany) staining as described before [71, 88]. In brief, HepG2 and HuH-7 cells were seeded in 96-well plates and allowed to adhere to the bottom of the wells and grow for 72 h in an incubator (37 °C, 5% CO2, humidified atmosphere). Afterwards, the cells were treated with rising concentrations of the chalcones, sorafenib and 17-AAG. After 24 h, 48 h and 72 h, respectively, the cells were fixed using 1% glutaraldehyde and stained for 30 min with 0.1% crystal violet. The excess unbound dye was removed by rinsing with water for 30 min. Cells were then lysed by incubation with 0.2% Triton X-100 (Sigma-Aldrich, Darmstadt, Germany) overnight dissolving the bound dye. The extinction of crystal violet was measured at 570 nm using ELISA readers (Dynex Technologies, Denkendorf, Germany; GloMax® Discover Microplate Reader Promega, Madison, WI, USA). IC50 values are given as means ± SD of a minimum of three independent experiments performed in triplicates and more.
Another series concerns L. major amastigotes. Briefly: Leishmania major testing assay, amastigotes. Type of series: cell-based. Particulars: for IC50: Leishmania major; for SI (Amastigotes) selectivity index (macrophages/L. major): ratio macrophages IC50 / amastigotes IC50.
The test system of series [4] is HuH-7. The series can be described thus: Antiproliferative activity, crystal violet assay. It counts as cell-based. Particulars: Homo sapiens, Huh-7, 48 h, mean ± SD.
Experimental: as §3, §4
For series [5], the system named is HepG2. The series can be described thus: Colony formation assay. Particulars: HepG2, 14 days of growth under treatment. It counts as cell-based, Human.
Experimental: (§5) Long-term effects of drug treatment on proliferation and clonogenicity were assessed by colony formation assays. HCC cell lines were seeded at 1000 cells/well (HepG2) and 200 cells/well (HuH-7) in 6-well plates and allowed to adhere overnight. […] Untreated cells served as controls. After 14 d, the cells were washed with PBS, fixed with 4% formaldehyde for 1 h and stained with 0.5% crystal violet for 3 min. Excess crystal violet dye was removed by gently rinsing with water. Representative images were taken and stained colonies were counted. A colony was defined as a cell aggregate of 50 or more cells. n = 4 independent experiments were performed and significance was tested by one-way ANOVA assays.
Series [6] deals with HuH-7. The series can be described thus: Colony formation assay. It counts as cell-based, Human. Particulars: HuH-7, 14 days of growth under treatment.
Experimental: as §5
The test system of a further series is Hsp70 in HuH-7 cells. Briefly: Western blot analysis of Hsp70 expression. It counts as cell-based, Human. Particulars: HuH-7, 24 h treatment. On the procedure:
(§1) Changes in the level of protein expression were assessed through Western blotting. HepG2 and HuH-7 cells were seeded at a density of 1 × 10^6 cells/well in 100 mm petri dishes and incubated until the desired confluency. Drugs were added at given concentrations for 24 h. Untreated cells served as controls. After washing with PBS, the cells were frozen at −20 °C. Subsequently, radioimmunoprecipitation assay (RIPA) buffer mixed with one cOmplete™ Mini Protease Inhibitor tablet/10 mL (Roche Diagnostics GmbH, Mannheim, Germany) was added to lyse the cells. Following these steps, the protein levels were analyzed using the Pierce™ BCA Protein Assay Kit (Thermo Fisher Scientific, Waltham, USA) and protein levels were normalized to ensure equal protein loading of 20 µg/lane. Laemmli buffer and β-mercaptoethanol were added to the probes following denaturation at 96 °C for 10 min. Proteins were separated using SDS–PAGE and electro-transferred to polyvinylidene difluoride (PVDF) membranes. Membranes were blocked in 5% non-fat dry milk in Tris-buffered saline with 0.1% Tween-20 and incubated with primary antibody overnight at 4 °C. […] Blots of n = 3 independent experiments were generated. β-Actin expression served as a loading control and calculated values were normalized to its expression.

The test system of another series is Hsp70 in HepG2 cells. The series can be described thus: Western blot analysis of Hsp70 expression. Type of series: cell-based, Human. Particulars: HepG2, 24 h treatment. On the procedure:
as §1
In general terms: Immunoblotting shows a protein as a band on a membrane.

For series [7], the system named is HuH-7. Briefly: Lactate dehydrogenase (LDH) assay, unspecific cytotoxicity. It counts as cell-based, Human. The following applies: HuH-7, 1, 5 and 10 µM, 6 h and 24 h, vs untreated controls. As for the experimental part: (§2) To exclude unspecific compound-induced cytotoxicity as the predominant mode of action a lactate dehydrogenase (LDH) assay was performed using the Cytotoxicity Detection Kit^PLUS LDH (Roche Diagnostics GmbH, Mannheim, Germany, Cat. No. 4744934001) as described earlier. In short, HCC cells were seeded in 96-well plates at 8 × 10^3 cells/well (HepG2) and 10 × 10^3 cells/well (HuH-7). Following incubation overnight, the cells were treated with 246TMP-3SF5 and 17-AAG at final concentrations of 1 µM, 5 µM and 10 µM, respectively, for 6 h and 24 h. The formation of the red-brownish formazan dye, which is formed proportionally to the LDH enzyme activity in the sample, was measured at 490/600 nm using the GloMax® Discover Microplate Reader (Promega, Madison, WI, USA). Unspecific cytotoxicity was determined by measuring the percentage of LDH release into the supernatant of treated cells compared to untreated controls. Measurements were performed in triplicate in n = 3 independent experiments and mean percentage changes ± SEM as compared to controls are shown.

The test system of series [8] is HepG2. Described as above. The following applies: HepG2, 1, 5 and 10 µM, 6 h and 24 h, vs untreated controls. It counts as cell-based, Human. As for the experimental part:
as §2

The subject of another series is Hsp90 in HepG2 cells. Briefly: Western blot analysis of Hsp90 expression. Type of series: cell-based, Human. The following applies: HepG2, 24 h treatment. On the procedure: as §1
Another series concerns Hsp90 in HuH-7 cells. The series can be described thus: Western blot analysis of Hsp90 expression. It counts as cell-based, Human. Particulars: HuH-7, 24 h treatment. On the procedure: as §1

“Also recorded” adds a separate entry of the source. Like-named read-outs stand apart in the source and are kept apart here.

Experimental for L. major amastigotes: (§6) Promastigotes (obtained from a patient in 2016) and amastigotes of L. major were applied for drug testing according to previously published methods [63, 90]. IC50 values were calculated from three independent experiments.
Experimental for L. major promastigotes: as §6
Experimental for Vero monkey kidney cells: (§7) Cytotoxicity to Vero cells or murine macrophages was evaluated using the MTT assay according to previously published articles and expressed as IC50 values which were determined from three independent experiments [63, 91].
Experimental for murine macrophages: as §7

The IC50 is the midpoint of a concentration-inhibition curve. `O=C1C(O)=C([C@H]2CC[C@H](c3ccc(Cl)cc3)CC2)C(=O)c2ccccc21` [ATO]: in series [1], the IC50 was 0.07 µM.

For the compound `COc1ccccc1C(=O)/C=C/c1c2ccccc2cc2ccccc12` [2MeO-Anth], the IC50 in series [2] is 9.8 µM; with murine macrophages, 48.8 µM; in the series with L. major promastigotes (Leishmania major), 1.8 µM; in the series on Vero monkey kidney cells, 22.8 µM; with HepG2 [3] it was greater than 10 µM; with L. major amastigotes it was 33.7 µM. In addition, in the series with HuH-7 [4], the IC50 was greater than 10 µM. Further, the “SI selectivity index (Vero/T. gondii)” value in series [2] worked out at 2.3. The “SI (Promastigotes) selectivity index (macrophages/L. major)” value (from here on “SI (Promastigotes) selectivity index”) in the series with L. major promastigotes amounted to 26.6. Besides, in the series with L. major amastigotes, the “SI (Amastigotes) selectivity index (macrophages/L. major)” value (shortened to “SI (Amastigotes) selectivity index”) stood at 1.5.

As for `COc1ccc(C(=O)/C=C/c2cccc([N+](=O)[O-])c2)c(OC)c1` [24DMP-3NO], the IC50 in series [2] is 2.2 µM; in the series on murine macrophages it was 25.2 µM; in the series on L. major promastigotes it was 0.86 µM; in the series with L. major promastigotes (Leishmania major), less than 1 µM; in the series on Vero monkey kidney cells it was 5.4 µM; with HepG2 [3] it was greater than 10 µM. Besides, the IC50 was 28.4 µM in the series with L. major amastigotes and greater than 10 µM in the series with HuH-7 [4]. In addition, the “SI selectivity index (Vero/T. gondii)” value in series [2] is listed as 2.4. In addition, the “SI (Promastigotes) selectivity index” value with L. major promastigotes is 29.3. Also, the “SI (Amastigotes) selectivity index” value in the series on L. major amastigotes is given as 0.89.

Regarding `COc1cc(OC)c(C(=O)/C=C/c2c3ccccc3cc3ccccc23)c(OC)c1` [246TMP-Anth, 2′,4′,6′-trimethoxy-9-anthracenylchalcone], the IC50 was 5.8 µM in series [2]; 15.8 µM in the series on murine macrophages; 0.73 µM in the series on L. major promastigotes; less than 1 µM in the series on L. major promastigotes (Leishmania major); 19.6 µM in the series with Vero monkey kidney cells; greater than 10 µM in the series on HepG2 [3]. The values for the IC50 in the series on L. major amastigotes and with HuH-7 [4] were 18.8 µM and greater than 10 µM, respectively. Further, the “SI selectivity index (Vero/T. gondii)” value in series [2] turned out to be 3.4. In addition, the “SI (Promastigotes) selectivity index” value in the series with L. major promastigotes is 21.7. Further, the “SI (Amastigotes) selectivity index” value in the series with L. major amastigotes is reported as 0.84.

As for `COc1ccc(C(=O)/C=C/c2c3ccccc3cc3ccccc23)c(OC)c1` [24DMP-Anth], the IC50 is 7.6 µM in [2]; 48.3 µM with murine macrophages; 2.2 µM in the series on L. major promastigotes (Leishmania major); 22.3 µM in the series on Vero monkey kidney cells; greater than 10 µM in the series with HepG2 [3]; 28 µM in the series on L. major amastigotes. Besides, the IC50 in the series on HuH-7 [4] is greater than 10 µM. Also, in series [2], the “SI selectivity index (Vero/T. gondii)” value came out at 2.9. Moreover, in the series with L. major promastigotes, the “SI (Promastigotes) selectivity index” value came out at 22.3. Further, the “SI (Amastigotes) selectivity index” value with L. major amastigotes is recorded as 1.7.

As to `C=CCNC1=C2C[C@@H](C)C[C@H](OC)[C@H](O)[C@@H](C)/C=C(\C)[C@H](OC(N)=O)[C@@H](OC)/C=C\C=C(/C)C(=O)NC(=CC1=O)C2=O` [17-AAG], the “Colony formation (long-term antiproliferative effect, clonogenicity)” value (from here on “Colony formation”) in the series on HepG2 [5] and in the series on HuH-7 [6] was “inhibited colony formation significantly; also recorded: close to no colonies formed” throughout. Moreover, the IC50 with HepG2 [3] was 1.6 ± 0.5 µM; with HuH-7 [4], 0.4 ± 0.4 µM.

Turning to `CNC(=O)c1cc(Oc2ccc(NC(=O)Nc3ccc(Cl)c(C(F)(F)F)c3)cc2)ccn1` [Sorafenib, reference compound], the “Colony formation” value in the series with HepG2 [5] and with HuH-7 [6] was “colony count did not differ much from the untreated controls” in each case. Also, the IC50 in the series on HepG2 [3] is 4.4 ± 1 µM; in the series on HuH-7 [4], 5.4 ± 0.6 µM.

`COc1cc(OC)c(C(=O)/C=C/c2cccc(S(F)(F)(F)(F)F)c2)c(OC)c1` [246TMP-3SF5, 2′,4′,6′-trimethoxy-3-pentafluorosulfanylchalcone]: the IC50 in series [2] came out at 0.42 µM; in the series with murine macrophages, 32.1 µM; in the series with L. major promastigotes (Leishmania major) it was 9.2 µM; in the series on Vero monkey kidney cells it was 1.2 µM; in the series with HepG2 [3], 1.3 ± 0.2 µM; in the series with L. major amastigotes, 20.3 µM. In the series with HuH-7 [4], the IC50 was 2.2 ± 0.3 µM. The “SI selectivity index (Vero/T. gondii)” value in series [2] worked out at 2.8. Also, the “Colony formation” value with HepG2 [5] and in the series on HuH-7 [6] was “dose-dependent decrease in colonies formed; also recorded: close to no colonies formed” in each case. Besides, in the series with L. major promastigotes, the “SI (Promastigotes) selectivity index” value turned out to be 3.5. Moreover, the “Hsp70 protein expression level” value in the series with Hsp70 in HuH-7 cells and with Hsp70 in HepG2 cells was “drastically increased” each time. The “LDH release (non-specific toxicity)” value with HuH-7 [7] and in the series on HepG2 [8] was “does not significantly increase LDH release” in each case. Moreover, in the series on L. major amastigotes, the “SI (Amastigotes) selectivity index” value was found to be 1.6. Further, the “Hsp90 protein expression level” value in the series with Hsp90 in HepG2 cells and in the series on Hsp90 in HuH-7 cells was “almost no changes” in each case.
